# Experiment: Planar scintigraphy of 111In-compounds in normal rats
# Assay type: in vivo
# Conditions: 1, 24 and 48 hours after ^111In-OMS or ^111In-OB121
# Experimental: FIG. 31 is planar scintigraphy of ^111In-Compounds ([…], iv, at 1-48 hours acquired 500,000, count) in normal rats.
# Pamidronate (PAM), Methyl diphosphonate (MDP) and OMS are bone-related agents and were used as control group in present invention. Scintigraphic images, captured by a gamma camera equipped with low-energy, parallel-hole collimator or micro-PET, were obtained in 0.5-2 hours. The selected images are shown in FIGS. 29 and 30, wherein FIG. 29 compares the planar images of 30, 60, and 120 min of normal rats which were taken ^99mTc-PAM, ^99mTc-MDP, ^99mTc-OMS, ^99mTc-OB141, ^99mTc-OB 121 and ^99mTc-DTPA-BP respectively. FIG. 30 compares the planar images of 20, 60, and 150 min of normal rats which were taken ^99mTc-MDP, ^99mTc-DTPA-AMDP, and ^99mTc-MAMA-AMDP respectively. Higher joint-to-muscle (J/M) or bone-to-muscle (B/M) ratios and the better quality of bone images were achieved. […] Besides, as tetraazacyclic groups are very lipophilic so that they may have potential applications in the treatment of osteoporosis. Thus, tetraazacyclic groups were labeled with In-111 for longer observation.
compound,measurement,value
"O=P(O)(O)C(O)(CN1CCN(CC(O)(P(=O)(O)O)P(=O)(O)O)CCN(CC(O)(P(=O)(O)O)P(=O)(O)O)CCN(CC(O)(P(=O)(O)O)P(=O)(O)O)CC1)P(=O)(O)O [OB-121, 1,4,7,10-Tetraazacyclododecane-1,4,7,10-tetrakis(2-hydroxy-ethylenebisphosphonate)]",quality of planar images,better compound for getting high quality images
